Counter-ions that a name gives are not always drawn.
How the values were obtained:
Format in all cases: cell-based
hAT1R [1] = molecular target: T1, hAT1R (Homo sapiens, UniProt P30556); test: BRET β-arrestin2 biosensor assay, higher receptor expression (hAT1R 5 ng/well), HEK293 cells; details: for EC50: High AT1R Expression
T1 sequence (P30556 1-359): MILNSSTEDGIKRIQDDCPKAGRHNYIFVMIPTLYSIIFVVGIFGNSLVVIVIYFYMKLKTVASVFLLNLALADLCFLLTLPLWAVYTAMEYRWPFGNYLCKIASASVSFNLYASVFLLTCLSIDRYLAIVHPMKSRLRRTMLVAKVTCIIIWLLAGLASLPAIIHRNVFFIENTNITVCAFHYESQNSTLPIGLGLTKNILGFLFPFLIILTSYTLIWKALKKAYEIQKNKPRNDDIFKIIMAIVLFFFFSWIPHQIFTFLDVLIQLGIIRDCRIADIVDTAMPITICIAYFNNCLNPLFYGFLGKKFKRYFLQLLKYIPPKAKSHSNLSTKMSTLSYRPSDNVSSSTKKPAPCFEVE

AGTR1 = molecular target: T2, AGTR1 (Homo sapiens, UniProt P30556); test: DiscoveRx β-arrestin2 recruitment assay (enzyme complementation, Pathunter CHO-K1 AGTR1 β-arrestin cell line); details: DiscoveRx β-arrestin2 recruitment; for DiscoveRx β-arrestin2 Ymax (%): maximal response
T2 construct: host or cells: Pathunter CHO-K1 AGTR1 β-arrestin cell line (CHO-K1)
T2 sequence (P30556 1-359): T1 sequence (P30556 1-359)
Summary of the method: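 Chemiluminescent enzyme-complementation read-out of β-arrestin2 recruitment to AGTR1 in engineered CHO-K1 cells after 90 min compound exposure at 37° C. Values are 4-parameter logistic EC50s in agonist mode, IC50s in antagonist mode, with efficacy relative to the maximal All response.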

hAT1R [2] = molecular target: T1, hAT1R; test: BRET Gq biosensor assay, agonist response, HEK293 cells; details: section of the 42nd table directly before the BRET P63 section
Protocol: BRET β-arrestin2 and Gq Activation Assays
In another aspect of the invention, association of the ATIR with signaling proteins is assessed using bioluminescence resonance energy transfer assays (Stephane Angers, Ali Salahpour et al. 2002). This technology measures the association between bioluminescent and fluorescent protein tags.
Several of the plasmid constructs used in BRET experiments were previously described. Briefly, the coding sequence of β-arrestin2 was fused to Renilla luciferase II to generate β-arrestin2-Rluc (Quoyer, Janz et al. 2013). The membrane targeting motif from K-Ras, CAAX motif (GKKKKKKSKTKCVIM), was fused to Renilla GFP to create rGFP-CAAX plasmid (Namkung Y et al., Nat Commun (2016) 7, 12178). The Renilla luciferase II was inserted in the Gaq protein to generate Gaq-Rluc (Breton, Sauvageau et al. 2010). The Gγ1 protein was tagged with GFP10 to obtain GFP-Gyl, using the same strategy described previously for GFP-Gy2 (Gales, Rebois et al. 2005). The Gaq binding domain of the p63RhoGEF protein (amino acids 295-502) was fused to Renilla luciferase II to create P63-Rluc. Finally, the hAT1R plasmid construct encoding the receptor was generated by optimizing the coding sequence of human angiotensin II receptor (GeneOptimizer from ThermoFisher), and adding an artificial cleavable signal peptide from bovine prolactin ([…]) in N-terminus of the receptor to increase cell surface expression.
Gq Biosensor Assay HEK293 cells were cultured in DMEM supplemented with Penicillin-Streptomycin and 10% fetal bovine serum. Two days before the BRET experiment, HEK293 cells were transfected with hAT1R expression plasmid (200 ng/well) as well as Gaq-Rluc (100 ng/well), Gβ1 (375 ng/well) and GFP-Gγ1 (625 ng/well), using linear polyethylenimine 25 kDa (PEI) at a PEI:DNA ratio of 3:1. Transfected cells were directly seeded in 96-well plates, at a density of 35 000 cells per well, and maintained in culture for the next 48 h.
BRET experiments were carried out subsequently using the following procedures: cells were washed once with Tyrode's buffer (137 mM NaCl, 1 mM CaCl2, 0.9 mM KCl, […], 3.6 mM NaH2PO4, 5.5 mM glucose, 12 mM NaHCO3, and 25 mM HEPES, pH 7.4) and 90 μl of Tyrode's buffer was added to each well. Cells were equilibrated in their new buffer at room temperature for at least 30 minutes. Following the equilibration period, the coelenterazine substrate was first added to the cells, 10 μl per well of a 10×solution (prolume purple coelenterazine at a final concentration of 2 μM), immediately followed by compound addition using the HP D300 digital dispenser from Tecan (10 singlicate concentrations). Cells were incubated for 5 min at room temperature and BRET readings were then collected using a Synergy Neo Multi-Mode reader from BioTek with BRET2 filters 410/515, to record agonist response. […] A second reading was collected 5 min after this second addition, using the Synergy Neo Multi-Mode reader from BioTek with BRET2 filters 410/515, to record antagonist response. The BRET signal was determined by calculating the ratio of the light emitted by GFP (515 nm) over the light emitted by the Rluc (410 nm). To analyze agonist response, BRET signal values were converted into percentage of activation using the non-stimulated control as 0% and AngII maximal response as 100%. Sigmoidal concentration-response curves were generated with those normalized values using a 4-parameter logistic equation (IDBS ActivityBase software), to determine EC50 of the different compounds. In the case of antagonist response analysis, BRET signal values were converted into percentage of inhibition using the fixed dose of AngII (corresponding to the EC50) as 0% and non-stimulated control as 100%. Sigmoidal concentration-response curves were generated with those normalized values using a 4-parameter logistic equation (IDBS ActivityBase software), to determine IC50 of the different compounds.

Row | Structure (SMILES) | BRET β-Arrestin2 High AT1R Expression Ymax (%) (hAT1R [1]) | EC50 (hAT1R [1]) [nM] | EC50 (AGTR1) [nM] | DiscoveRx β-arrestin2 Ymax (%) (AGTR1) | EC50 (hAT1R [2]) [nM]
1 | CCCCC(=O)N(Cc1ccc(-c2cc(Oc3ccccc3)ccc2-c2nn[nH]n2)cc1)C1(C(=O)O)CCCCC1 [Example 285, 1-(N-((5′-Phenoxy-2′-(2H-tetrazol-5-yl)-[1,1′-biphenyl]-4-yl)methyl)pentanamido)cyclohexanecarboxylic acid] | 33.4 | 57.3 | 66.4 | 24.8 | 1540
2 | CCCCC(=O)N(Cc1ccc(-c2cc(Oc3cccnc3)ccc2-c2nn[nH]n2)cc1)C1(C(=O)O)CCCCC1 [Example 286] | 45.3 | 47.1 | 113 | 35.8 | 302
3 | CCCCC(=O)N(Cc1ccc(-c2cc(Oc3cccc(OC(F)(F)F)c3)ccc2-c2nn[nH]n2)cc1)C1(C(=O)O)CCCCC1 [Example 287] | 45.9 | 54.1 | 175 | 30.5 | > 100000
4 | CCCCC(=O)N(Cc1ccc(-c2cc(-c3cnn(C)c3)ccc2-c2nn[nH]n2)cc1)C1(C(=O)O)CCCCC1 [Example 288, 1-(N-((5′-(1-Methyl-1H-pyrazol-4-yl)-2′-(2H-tetrazol-5-yl)-[1,1′-biphenyl]-4-yl)methyl)pentanamido)cyclohexanecarboxylic acid] | 69.2 | 474 | 186 | 29.6 | > 100000
5 | CCCCC(=O)N(Cc1ccc(-c2cc(-c3cc(F)cc(F)c3)ccc2-c2nn[nH]n2)cc1)C1(C(=O)O)CCCCC1 [Example 289] | 85.2 | 13 | 48.2 | 51.1 | 546
6 | CCCCC(=O)N(Cc1ccc(-c2cc(-c3cccnc3OC)ccc2-c2nn[nH]n2)cc1)C1(C(=O)O)CCCCC1 [Example 290] | 31.2 | 67.3 | 88.5 | 30.7 | 503
7 | CCCCC(=O)N(Cc1ccc(-c2cc(-c3ccc(NC(C)=O)cc3)ccc2-c2nn[nH]n2)cc1)C1(C(=O)O)CCCCC1 [Example 291] | 9.6 | 1650 | 134 | 10.0 | > 100000
8 | CCCCC(=O)N(Cc1ccc(-c2cc(-c3ccc4ncccc4c3)ccc2-c2nn[nH]n2)cc1)C1(C(=O)O)CCCCC1 [Example 292] | 36.5 | 72.2 | 177 | 32.1 | > 100000
9 | CCOc1nc2cccc(C(=O)O)c2n1Cc1ccc(-c2cc(N3CCCC(F)(F)C3)ccc2C(=O)O)cc1 [Example 315] | 29.1 | 1840 | 242 | 21.5 | > 100000
10 | CCOc1nc2cccc(C(=O)OC)c2n1Cc1ccc(-c2cc(-c3ccccc3)ccc2-c2noc(=O)[nH]2)cc1 [Example 316, methyl 2-ethoxy-1-((6′-(5-oxo-4,5-dihydro-1,2,4-oxadiazol-3-yl)-[1,1′:3′,1″-terphenyl]-4-yl)methyl)-1H-benzo[d]imidazole-7-carboxylate] | 97.5 | 46.2 | 53 | 51.6 | > 100000
11 | O=C(O)c1cccc2nc(O)n(Cc3ccc(-c4cc(-c5ccccc5)ccc4-c4nn[nH]n4)cc3)c12 [Example 317] | 39.8 | 319 | 87.2 | 51.5 | 17100
12 | CCOc1nc2cccc(C(=O)O)c2n1Cc1ccc(-c2cc(-c3cccnc3OC)ccc2C(=O)O)cc1 [Example 318] | 93.9 | 132 | 47.5 | 54.6 | 552
13 | CCOc1nc2cccc(C(=O)O)c2n1Cc1ccc(-c2cc(-c3ccc(C(=O)N(C)C)cc3)ccc2C(=O)O)cc1 [Example 320] | 86.8 | 173 | 40.7 | 55.7 | > 100000
14 | CCOc1nc2cccc(C(=O)O)c2n1Cc1ccc(-c2cc(-c3ccc(C(=O)N(C)C)cc3)ccc2-c2noc(=O)[nH]2)cc1 [Example 321] | 86.7 | 108 | 56.8 | 83.4 | 47.9
15 | CCOc1nc2cccc(C(=O)O)c2n1Cc1ccc(-c2cc(-c3cccnc3OC)ccc2-c2noc(=O)[nH]2)cc1 [Example 329] | 91.4 | 2.8 | 7.1 | 77.6 | 31.5
16 | CCCCc1ncc(C(=O)O)n1Cc1ccc(-c2cc(-c3ccccc3)ccc2-c2nn[nH]n2)cc1 [Example 345, 1-((6′-(2H-tetrazol-5-yl)-[1,1′:3′,1″-terphenyl]-4-yl)methyl)-2-butyl-1H-imidazole-5-carboxylic acid, TFA salt] | 92.0 | 17.9 | 18.1 | 44.8 | 12.5
17 | CCCCc1ncc(C(=O)N2CCCC2)n1Cc1ccc(-c2cc(-c3ccccc3)ccc2-c2nn[nH]n2)cc1 [Example 347] | 48.8 | 172 | 57.2 | 26.8 | 242
18 | CCCCc1ncc(C(=O)NCCO)n1Cc1ccc(-c2cc(-c3ccccc3)ccc2-c2nn[nH]n2)cc1 [Example 348] | 85.4 | 34.3 | 7.3 | 50.9 | 89.2
19 | CCCCc1ncc(C(=O)Nc2nc(C)cs2)n1Cc1ccc(-c2cc(-c3ccccc3)ccc2-c2nn[nH]n2)cc1 [Example 349] | 67.6 | 117 | 69.2 | 24.8 | 174
20 | CCCCc1ncc(C(=O)NCCC(C)(C)O)n1Cc1ccc(-c2cc(-c3ccccc3)ccc2-c2nn[nH]n2)cc1 [Example 350] | 94.3 | 15.6 | 8.3 | 47.0 | 25.3
